According to patent US10233180B2, “Substituted nitrogen-containing heterocyclic derivatives, pharmaceutical compositions comprising the same and applications of antitumor thereof” (ZHEJIANG UNIVERSITY, priority 2014, dated 2019):

Tests used:
Akt1 = molecular target: T1, Akt1 (Homo sapiens, UniProt P31749); assay: AKT1/PKBα KinEASE FP Fluorescein Green Assay (fluorescence polarization kinase kit); format: biochemical; conditions: 1 h reaction, read-out: Inhibitory activities against Akt1 (IC50)
T1 construct: purchased 32-021
T1 sequence (P31749 whole entry): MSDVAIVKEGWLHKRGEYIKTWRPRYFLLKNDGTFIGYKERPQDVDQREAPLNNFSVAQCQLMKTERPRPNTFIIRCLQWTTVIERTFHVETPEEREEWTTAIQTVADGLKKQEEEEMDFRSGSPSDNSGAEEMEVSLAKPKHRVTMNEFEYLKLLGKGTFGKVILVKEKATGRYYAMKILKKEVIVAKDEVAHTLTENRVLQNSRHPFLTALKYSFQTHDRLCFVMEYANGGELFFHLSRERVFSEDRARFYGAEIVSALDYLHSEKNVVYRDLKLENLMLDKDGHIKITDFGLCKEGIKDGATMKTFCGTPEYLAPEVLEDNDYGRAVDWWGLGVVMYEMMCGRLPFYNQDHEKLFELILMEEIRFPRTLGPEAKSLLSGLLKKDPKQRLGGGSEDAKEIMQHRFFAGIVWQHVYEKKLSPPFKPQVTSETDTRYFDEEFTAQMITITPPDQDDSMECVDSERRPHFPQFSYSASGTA
Method in brief: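 FP competition kinase assay: compounds (50 μM stock) with STK Substrate 3 and ATP, 1 h reaction at room temperature; stopped with stop/antibody mix, 4 h at room temperature, then polarization read. Inhibition derived from polarization values; IC50 calculated; triplicate wells.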

[1] = system: Human ovarian cancer cell strain OVCAR-8; assay: MTT assay, inhibition of tumor cell growth in vitro, 72 h; format: cell-based; conditions: Homo sapiens, OVCAR-8, MTT, read-out: Antitumor proliferative activities of tumor cell (IC50, μM) OVCAR-8
Method in brief: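 OVCAR8 cells in RPMI 1640 plus FBS were seeded at 4000 cells/well and exposed for 72 h at 37 °C to compound at 50, 10, 2, 0.4 and 0.08 μM final, with 1% DMSO as blank. Inhibition was calculated from OD relative to control, and IC50 was derived by the Bliss method.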

[2] = system: human colon cancer cell strain HCT-116; assay: as above; format: cell-based; conditions: Homo sapiens, HCT-116, MTT, read-out: Antitumor proliferative activities of tumor cell (IC50, μM) HCT-116 (converted)
Method in brief: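 Cells in RPMI 1640 with FBS, 4000 cells/well, exposed 72 h at 37 °C, 5% CO2 to final 50, 10, 2, 0.4 and 0.08 μM; 1% DMSO blank. MTT OD gives % inhibition versus control; IC50 derived by Bliss method.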

Compound	IC50 (Akt1) [nM]	IC50 [1] [µM]	IC50 [2] [µM]
Cn1ncc(Cl)c1-c1cc(C(=O)N[C@H]2CNCC[C@@H]2c2ccc(C(F)(F)F)cc2)oc1Cl (racemic) [Compound 30, 5-chloro-4-(4-chloro-1-methyl-1H-pyrazol-5-yl)-N-(3,4-trans-4-(4-trifluoromethylphenyl)piperidin-3-yl)furan-2-formamide]	92	1.01	21.6
CNC(=O)CC1C[C@@H](c2cccc(F)c2)[C@H](NC(=O)c2cc(Cl)c(-c3c(Cl)cnn3C)s2)CN1 (stereo partly drawn) [Compound 149, 4-chloro-5-(4-chloro-1-methyl-1H-pyrazol-5-yl)-N-((3S, 4S)-4-(3-fluorophenyl)-6-(2-(methylamido)-2-oxoethyl)piperidin-3-yl)thiophene-2-formamide]	7	3.21	2.56
Cn1ncc(Br)c1-c1coc(C(=O)N[C@H]2CNC[C@@H]2c2ccc(C(F)(F)F)cc2)c1 (racemic) [Compound 67, 4-(4-bromo-1-methyl-1H-pyrazol-5-yl)-N-(3,4-trans-4-(4-trifluoromethylphenyl)pyrrolidin-3-yl)furan-2-formamide]	272	10.6	20.4
COc1cc(C(=O)N[C@@H]2CNCC[C@H]2c2cccc(F)c2)ccc1-c1c(Cl)cnn1C [Compound 83, 4-(4-chloro-1-methyl-1H-pyrazol-5-yl)-N-((3S,4S)-4-(3-fluorophenyl)piperidin-3-yl)-3-methoxybenzamide]	10	1.32	4.09
Cc1[nH]c(C(=O)N[C@H]2CNCC[C@@H]2c2cccc(C#N)c2)cc1-c1c(Br)cnn1C (racemic) [Compound 10, 5-methyl-4-(1-methyl-4-bromo-1H-pyrazol-5-yl)-N-(3,4-trans-4-(3-cyanophenyl)piperidin-3-yl)-1H-pyrrole-2-formamide]	26	6.57	3.31
CNS(=O)(=O)CC1C[C@@H](c2ccc(F)c(F)c2)[C@H](NC(=O)c2ccc(-c3c(Cl)cnn3C)c(F)c2)CN1 (stereo partly drawn) [Compound 101]	7	0.43	2.11
Cn1nccc1-c1ccc(C(=O)N[C@@H]2CNCC[C@H]2c2ccc(F)c(F)c2)cc1 [Compound 77, N-((3S,4S)-4-(3,4-difluorophenyl)piperidin-3-yl)-4-(1-methyl-1H-pyrazol-5-yl)benzamide]	18	3.68	2.81
Cc1cnn(C)c1-c1cnc(C(=O)N[C@@H]2CNCC[C@H]2c2ccc(F)c(F)c2)cc1F [Compound 62, 4-fluoro-5-(1,4-dimethyl-1H-pyrazol-5-yl)-N-((3S,4S)-4-(3,4-difluorophenyl)piperidin-3-yl)pyridinyl-2-formamide]	626	6.67	31.1
Cn1ncc(Cl)c1-c1cc(C(=O)N[C@@H]2CNC(CC(=O)NC3CC3)C[C@H]2c2ccc(Cl)c(Cl)c2)oc1Cl (stereo partly drawn) [Compound 119, 5-chloro-4-(4-chloro-1-methyl-1H-pyrazol-5-yl)-N-((3S,4S)-6-(2-(cyclopropylamido)-2-oxoethyl)-4-(3,4-dichlorophenyl)piperidin-3-yl)furan-2-formamide]	4	0.65	1.47
Cn1ncc(Cl)c1-c1ccc(C(=O)N[C@@H]2CNCC[C@H]2c2ccc(Cl)cc2)cc1C#N [Compound 76, 4-(4-chloro-1-methyl-1H-pyrazol-5-yl)-N-((3S,4S)-4-(4-chlorophenyl)piperidin-3-yl)-3-cyanobenzamide]	21	2.54	1.56
Cn1ncc(Cl)c1-c1cc(C(=O)N[C@H]2CNCC[C@@H]2c2ccccc2)oc1Cl (racemic) [Compound 29, 5-chloro-4-(4-chloro-1-methyl-1H-pyrazol-5-yl)-N-(3,4-trans-4-phenylpiperidin-3-yl)furan-2-formamide]	62	1.12	8.67
CC(C)c1cnn(C)c1-c1nc(C(=O)N[C@H]2CNCC[C@@H]2C2CCC(F)C2)ncc1Cl (stereo partly drawn) [Compound 51, 5-chloro-4-(4-isopropyl-1-methyl-1H-pyrazol-5-yl)-N-(3,4-trans-4-(3-fluorocyclopentane)piperidin-3-yl)pyrimidine-2-formamide]	85	0.68	3.11
Cn1ncc(Cl)c1-c1cnc(C(=O)N[C@@H]2CNCC[C@H]2c2ccc(F)c(F)c2)nc1 [Compound 93, 5-(4-chloro-1-methyl-1H-pyrazol-5-yl)-N-((3S,4S)-4-(3,4-difluorophenyl)piperidin-3-yl)pyrimidine-2-formamide]	8	7.89	5.82
C[C@H]1CNC[C@@H](NC(=O)c2cc(-c3c(Cl)cnn3C)c(Cl)s2)[C@@H]1c1cccc(F)c1 [Compound 135, 5-chloro-4-(4-chloro-1-methyl-1H-pyrazol-5-yl)-N-((3S, 4S, 5R)-4-(3-fluorophenyl)-5-methylpiperidin-3-yl)thiophene-2-formamide]	12	1.2	0.8
Cn1ncnc1-c1cc(C(=O)N[C@H]2CNCC[C@@H]2c2ccc(C(F)(F)F)cc2)oc1Br (racemic) [Compound 3, 5-bromo-4-(1-methyl-1H-1,2,4-triazol-5-yl)-N-(3,4-trans-4-(4-trifluoromethylphenyl)piperidin-3-yl)furan-2-formamide]	43	13	8.9
Cc1cc(-c2c(Cl)cnn2C)cc(C(=O)N[C@H]2CNCC[C@@H]2c2ccccc2)n1 (relative stereo) [Compound 45, 6-methyl-4-(4-chloro-1-methyl-1H-pyrazol-5-yl)-N-(3,4-trans-4-phenylpiperidin-3-yl)pyridinyl-2-formamide]	812	2.01	12.6
Cc1cnn(C)c1-c1cnc(C(=O)N[C@H]2CNCC[C@@H]2c2ccc[nH]2)nc1C (racemic) [Compound 60, 4-methyl-5-(1,4-dimethyl-1-methyl-1H-pyrazol-5-yl)-N-(3,4-trans-4-(pyrrole-2-yl)piperidins-3-yl)pyrimidine-2-formamide]	972	6.01	2.27
CCC[C@H]1CNC[C@@H](NC(=O)c2cc(-c3c(Cl)cnn3C)c(Cl)s2)[C@@H]1c1cccc(F)c1 [Compound 134, 5-chloro-4-(4-chloro-1-methyl-1H-pyrazol-5-yl)-N-((3S,4S,5R)-4-(3-fluorophenyl)-5-propylpiperidin-3-yl)thiophene-2-formamide]	0.3	0.53	0.69
Cn1ncc(Br)c1-c1coc(C(=O)N[C@H]2CNCC[C@@H]2c2ccccc2)c1 (racemic) [Compound 22, 4-(4-bromo-1-methyl-1H-pyrazol-5-yl)-N-(3,4-trans-4-phenylpiperidin-3-yl) furan-2-formamide]	108	7.89	12.2
Cn1ncc(Cl)c1-c1ccc(C(=O)N[C@@H]2CNCC[C@H]2c2ccc(F)c(F)c2)cc1F [Compound 82, 4-(4-chloro-1-methyl-1H-pyrazol-5-yl)-N-((3S,4S)-4-(3,4-difluorophenyl)piperidin-3-yl)-3-fluorobenzamide]	16	1.15	1.56
CCc1sc(C(=O)N[C@H]2CNCC[C@@H]2c2cnc3ccccc3c2)cc1-c1c(C(C)C)cnn1C (racemic) [Compound 9]	88	0.94	2.35
Cn1ncc(Cl)c1-c1cc(C(=O)N[C@H]2CNCC[C@@H]2c2ccc(Cl)cc2)oc1Cl (racemic) [Compound 2, 5-chloro-4-(4-chloro-1-methyl-1H-pyrazol-5-yl)-N-(3,4-trans-4-(4-chlorphenyl)piperidin-3-yl)furan-2-formamide]	99	6.45	1.41
Cc1sc(C(=O)N[C@H]2CNCC[C@@H]2c2ccc(F)c(F)c2)nc1-c1c(Cl)cnn1C (racemic) [Compound 20, 4-(4-chloro-1-methyl-1H-pyrazol-5-yl)-N-(3,4-trans-4-(3,4-difluorophenyl)piperidin-3-yl)-5-methylthiazole-2-formamide]	12	9.91	2.11
Cn1ncc(Cl)c1-c1cc(C(=O)N[C@@H]2CNC(CC(=O)NCC(O)CO)C[C@H]2c2ccc(Cl)c(Cl)c2)oc1Cl (stereo partly drawn) [Compound 121, 5-chloro-4-(4-chloro-1-methyl-1H-pyrazol-5-yl)-N-((3S,4S)-4-(3,4-dichlorophenyl)-6-(2-((2,3-dihydroxypropyl)amido)-2-oxoethyl)piperidin-3-yl)furan-2-formamide]	5	0.74	0.36
CCc1cnn(C)c1-c1cccc(C(=O)N[C@H]2CNCC[C@@H]2c2ccc(Cl)cc2)c1Cl (racemic) [Compound 53, 2-chloro-3-(4-ethyl-1-methyl-1H-pyrazol-5-yl)-N-(3,4-trans-4-(4-chlorophenyl)piperidin-3-yl)phenyl formamide]	29	4.69	2.66
Cn1ncc(Cl)c1-c1cnc(C(=O)N[C@@H]2CNCC[C@H]2c2cccc(F)c2)cc1Cl [Compound 92, 4-chloro-5-(4-chloro-1-methyl-1H-pyrazol-5-yl)-N-((3S,4S)-4-(3-fluorophenyl)piperidin-3-yl)picolinamide]	16	1.07	1.25
